Experimental data: ChEMBL document CHEMBL5137022, “Antitumor Activity of Rutaecarpine in Human Colorectal Cancer Cells by Suppression of Wnt/β-Catenin Signaling” (J Nat Prod, 2022)
Calls of active or inactive are those of the source. The calls are words filed in the database; no cut-off is given here.

How the values were obtained:
LS174T [1] = test: Induction of cell cycle arrest in human LS174T cells assessed as accumulation of cells at sub-G1 phase at 20 uM measured at 12 hrs by RNase A/propidium iodide staining based flow cytometric analysis (reference value: 0.7 %); assay type: functional
[2] = Inhibition of Wnt/beta-catenin transactivation signalling in HEK293 cells transfected with renilla luciferase and TOPFlash reporter gene incubated for 24 hrs by dual-luciferase assay; assay type: cell-based; conditions: Homo sapiens, HEK293, 24 h
HCT-15 = test: Antiproliferative activity against human HCT-15 cells harboring wild type beta-catenin assessed as reduction in cell viability measured after 72 hrs by SRB assay; assay type: functional, cell-based; conditions: HCT-15, 72 h
HCT-116 = test: Antiproliferative activity against human HCT-116 cells harboring beta-catenin mutant assessed as reduction in cell viability measured after 72 hrs by SRB assay; assay type: functional, cell-based; conditions: HCT-116, 72 h
CCD-841CoN = test: Antiproliferative activity against human CCD-841CoN cells assessed as reduction in cell viability measured after 72 hrs by SRB assay; assay type: functional, cell-based
LS174T [3] = test: Inhibition of Wnt/beta-catenin transactivation signalling in human LS174T cells transfected with renilla luciferase and TOPFlash reporter gene incubated for 24 hrs by dual-luciferase assay; assay type: cell-based; conditions: dose 2.5-20 µM, DDE = dose-dependent effect
LS174T [4] = test: Downregulation of beta-catenin expression in human LS174T cells at 2.5 to 20 uM incubated for 24 hrs by Western blot analysis; assay type: functional, cell-based; conditions: dose 2.5-20 µM
LS174T [5] = test: Induction of cell cycle arrest in human LS174T cells assessed as accumulation of cells at G0/G1 phase at 10 uM measured after 24 hrs by RNase A/propidium iodide staining based flow cytometric analysis (reference value: 71.7 %); assay type: functional
LS174T [6] = test: Induction of cell cycle arrest in human LS174T cells assessed as accumulation of cells at S phase at 10 uM measured after 24 hrs by RNase A/propidium iodide staining based flow cytometric analysis (reference value: 14.5 %); assay type: functional
LS174T [7] = test: Induction of cell cycle arrest in human LS174T cells assessed as accumulation of cells […] at 20 uM measured after 24 hrs by RNase A/propidium iodide staining based flow cytometric analysis (reference value: 1.3 %); assay type: functional
LS174T [8] = test: Induction of cell cycle arrest in human LS174T cells assessed as accumulation of cells at S phase at 20 uM measured after 24 hrs by RNase A/propidium iodide staining based flow cytometric analysis (reference value: 14.5 %); assay type: functional
LS174T [9] = test: Induction of cell cycle arrest in human LS174T cells assessed as accumulation of cells at G2/M phase at 20 uM measured after 24 hrs by RNase A/propidium iodide staining based flow cytometric analysis (reference value: 12.2 %); assay type: functional
LS174T [10] = test: Induction of cell cycle arrest in human LS174T cells assessed as downregulation of cyclin D1 expression measured after 24 hrs by Western blot analysis; assay type: functional, cell-based; conditions: dose 5-20 µM, DDE = dose-dependent effect
LS174T [11] = test: Induction of cell cycle arrest in human LS174T cells assessed as accumulation of cells at G0/G1 phase at 20 uM measured at 12 hrs by RNase A/propidium iodide staining based flow cytometric analysis (reference value: 74.8 %); assay type: functional
LS174T [12] = test: Induction of cell cycle arrest in human LS174T cells assessed as accumulation of cells at G2/M phase at 20 uM measured at 12 hrs by RNase A/propidium iodide staining based flow cytometric analysis (reference value: 12.9 %); assay type: functional
LS174T [13] = test: Induction of cell cycle arrest in human LS174T cells assessed as accumulation of cells at G0/G1 phase at 20 uM measured at 24 hrs by RNase A/propidium iodide staining based flow cytometric analysis (reference value: 74.8 %); assay type: functional
LS174T [14] = test: Induction of cell cycle arrest in human LS174T cells assessed as accumulation of cells at G0/G1 phase at 20 uM measured at 36 hrs by RNase A/propidium iodide staining based flow cytometric analysis (reference value: 74.8 %); assay type: functional
LS174T [15] = test: Induction of apoptosis in human LS174T cells assessed as total cell death at 20 uM measured after 48 hrs by AnnexinV-FITC/PI staining based flowcytometry analysis relative to control; assay type: functional
LS174T [16] = test: Induction of apoptosis in human LS174T cells assessed as total cell death at 30 uM measured after 48 hrs by AnnexinV-FITC/PI staining based flowcytometry analysis relative to control; assay type: functional
LS174T [17] = test: Induction of apoptosis in human LS174T cells assessed as total cell death at 40 uM measured after 48 hrs by AnnexinV-FITC/PI staining based flowcytometry analysis relative to control; assay type: functional
LS174T [18] = test: Induction of apoptosis in human LS174T cells assessed as upregulation of cleaved caspase-3 expression measured after 48 hrs by Western blot analysis; assay type: functional, cell-based; conditions: dose 20-40 µM, DDE = dose-dependent effect
LS174T [19] = test: Inhibition of cell invasion in human LS174T cells incubated for 24 hrs by transwell assay; assay type: functional, cell-based; conditions: dose 2-8 µM, DDE = dose-dependent effect
LS174T [20] = test: Downregulation of snail expression in human LS174T cells at up to 8 uM incubated for 24 hrs by Western blot analysis; assay type: functional, cell-based
LS174T [21] = test: Downregulation of MMP-7 expression in human LS174T cells at up to 8 uM incubated for 24 hrs by Western blot analysis; assay type: functional, cell-based
[22] = Toxicity in BALB/c nude mouse xenografted with human LS174T cells assessed as effect on body weight at 10 to 30 mg/kg, ip administered 3 times per week for 21 days; assay type: organism-based; conditions: in vivo, 504 h, dose 10-30 mg/kg, time 21 day
Mus musculus [23] = test: Downregulation of survivin expression in tumor of BALB/c mouse xenografted with human LS174T cells at 10 to 30 mg/kg, ip administered 3 times per week for 21 days by Western blot analysis; assay type: functional, organism-based; conditions: dose 10-30 mg/kg, time 21.0 day
Mus musculus [24] = test: Downregulation of MMP-7 expression in tumor of BALB/c mouse xenografted with human LS174T cells at 10 to 30 mg/kg, ip administered 3 times per week for 21 days by Western blot analysis; assay type: functional, organism-based; conditions: dose 10-30 mg/kg, time 21.0 day
Mus musculus [25] = test: Downregulation of snail protein expression in tumor of BALB/c mouse xenografted with human LS174T cells at 10 to 30 mg/kg, ip administered 3 times per week for 21 days by Western blot analysis; assay type: functional, organism-based; conditions: dose 10-30 mg/kg, time 21.0 day
Mus musculus [26] = test: Downregulation of c-Myc expression in tumor of BALB/c mouse xenografted with human LS174T cells at 10 to 30 mg/kg, ip administered 3 times per week for 21 days by immunohistochemical based analysis; assay type: functional, organism-based; conditions: dose 10-30 mg/kg, time 21.0 day
Mus musculus [27] = test: Downregulation of N-cadherin expression in tumor of BALB/c mouse xenografted with human LS174T cells at 10 to 30 mg/kg, ip administered 3 times per week for 21 days by immunohistochemical based analysis; assay type: functional, organism-based; conditions: dose 10-30 mg/kg, time 21.0 day
LS174T [28] = test: Induction of apoptosis in human LS174T cells assessed as increase in early apoptotic cells at 20 to 40 uM measured after 48 hrs by AnnexinV-FITC/PI staining based flowcytometry analysis; assay type: functional, cell-based; conditions: dose 20-40 µM
LS174T [29] = test: Induction of apoptosis in human LS174T cells assessed as increase in late apoptotic cells at 20 to 40 uM measured after 48 hrs by AnnexinV-FITC/PI staining based flowcytometry analysis; assay type: functional, cell-based; conditions: dose 20-40 µM

O=c1c2ccccc2nc2n1CCc1c-2[nH]c2ccccc12 [RUTAECARPINE]
Activity (LS174T [1]): 0.5%
IC50 [2]: 4.3 µM
IC50 (HCT-15): > 50 µM
IC50 (HCT-116): 31.1 µM
IC50 (CCD-841CoN): > 50 µM
inhibition (LS174T [3]): Dde
Activity (LS174T [4]): Active
Activity (LS174T [5]): 81.6%
Activity (LS174T [6]): 7.2%
Activity (LS174T [7]): 1.5%
Activity (LS174T [8]): 4.1%
Activity (LS174T [9]): 7%
Activity (LS174T [10]): Dde
Activity (LS174T [11]): 80.3%
Activity (LS174T [12]): 16.8%
Activity (LS174T [13]): 89.5%
Activity (LS174T [14]): 87.4%
Activity (LS174T [15]): 24.7%
Activity (LS174T [16]): 65.7%
Activity (LS174T [17]): 85.4%
Activity (LS174T [18]): Dde
inhibition (LS174T [19]): Dde
Activity (LS174T [20]): Active
Activity (LS174T [21]): Active
Activity [22]: Non-Toxic
Activity (Mus musculus [23]): Active
Activity (Mus musculus [24]): Active
Activity (Mus musculus [25]): Active
Activity (Mus musculus [26]): Active
Activity (Mus musculus [27]): Active
Activity (LS174T [28]): Active
Activity (LS174T [29]): Active
